Data: publication PMC3395220 (Journal of Medicinal Chemistry, 2012)
Like-named read-outs stand apart in the source and are kept apart here.

Legend:
60 cancer cell lines = assay: cells; type: cell-based, human; conditions: Homo sapiens
CCRF-CEM = type: cell-based, human; conditions: 10^Δ2-x, relative to compound 2
HL-60(TB) = type: cell-based, human; conditions: 10^Δ2-x, relative to compound 2
K-562 = type: cell-based, human; conditions: 10^Δ2-x, relative to compound 2
MOLT-4 = type: cell-based, human; conditions: 10^Δ2-x, relative to compound 2
RPMI-8226 = type: cell-based, human; conditions: 10^Δ2-x, relative to compound 2
SR = type: cell-based, human; conditions: 10^Δ2-x, relative to compound 2
A549/ATCCC [1] = type: cell-based, human; conditions: 10^Δ2-x, relative to compound 2
EKVX = type: cell-based, human; conditions: 10^Δ2-x, relative to compound 2
HOP-62 = type: cell-based, human; conditions: 10^Δ2-x, relative to compound 2
HOP-92 = type: cell-based, human; conditions: 10^Δ2-x, relative to compound 2
NCI-H226 = type: cell-based, human; conditions: 10^Δ2-x, relative to compound 2
NCI-H23 = type: cell-based, human; conditions: 10^Δ2-x, relative to compound 2
NCI-H460 = type: cell-based, human; conditions: 10^Δ2-x, relative to compound 2
NCI-H522 = type: cell-based, human; conditions: 10^Δ2-x, relative to compound 2
COLO 205 [2] = type: cell-based, human; conditions: 10^Δ2-x, relative to compound 2
HCC-2998 = type: cell-based, human; conditions: 10^Δ2-x, relative to compound 2
HCT-116 = type: cell-based, human; conditions: 10^Δ2-x, relative to compound 2
HCT-15 = type: cell-based, human; conditions: 10^Δ2-x, relative to compound 2
HT29 = type: cell-based, human; conditions: 10^Δ2-x, relative to compound 2
KM12 = type: cell-based, human; conditions: 10^Δ2-x, relative to compound 2
SW-620 = type: cell-based, human; conditions: 10^Δ2-x, relative to compound 2
SF-268 = type: cell-based, human; conditions: 10^Δ2-x, relative to compound 2
SF-295 [3] = type: cell-based, human; conditions: 10^Δ2-x, relative to compound 2
SF-539 = type: cell-based, human; conditions: 10^Δ2-x, relative to compound 2
SNB-19 = type: cell-based, human; conditions: 10^Δ2-x, relative to compound 2
SNB-75 = type: cell-based, human; conditions: 10^Δ2-x, relative to compound 2
U251 [4] = type: cell-based, human; conditions: 10^Δ2-x, relative to compound 2
LOX IMVI = type: cell-based, human; conditions: 10^Δ2-x, relative to compound 2
M14 = type: cell-based, human; conditions: 10^Δ2-x, relative to compound 2
MDA-MB-435 = type: cell-based, human; conditions: 10^Δ2-x, relative to compound 2
SK-MEL2 = type: cell-based, human; conditions: 10^Δ2-x, relative to compound 2
SK-MEL28 = type: cell-based, human; conditions: 10^Δ2-x, relative to compound 2
SK-MEL-5 [5] = type: cell-based, human; conditions: 10^Δ2-x, relative to compound 2
UACC-257 = type: cell-based, human; conditions: 10^Δ2-x, relative to compound 2
UACC-62 = type: cell-based, human; conditions: 10^Δ2-x, relative to compound 2
IGROV1 [6] = type: cell-based, human; conditions: 10^Δ2-x, relative to compound 2
OVCAR-3 = type: cell-based, human; conditions: 10^Δ2-x, relative to compound 2
OVCAR-4 = type: cell-based, human; conditions: 10^Δ2-x, relative to compound 2
OVCAR-5 = type: cell-based, human; conditions: 10^Δ2-x, relative to compound 2
OVCAR-8 [7] = type: cell-based, human; conditions: 10^Δ2-x, relative to compound 2
NCI/ADR-RES = assay: cells; type: cell-based, human; conditions: 10^Δ2-x, relative to compound 2
786-0 = type: cell-based, human; conditions: 10^Δ2-x, relative to compound 2
A498 = type: cell-based, human; conditions: 10^Δ2-x, relative to compound 2
ACHN = type: cell-based, human; conditions: 10^Δ2-x, relative to compound 2
CAKI-1 = type: cell-based, human; conditions: 10^Δ2-x, relative to compound 2
RXF 393 = type: cell-based, human; conditions: 10^Δ2-x, relative to compound 2
SN12C = type: cell-based, human; conditions: 10^Δ2-x, relative to compound 2
TK-10 = type: cell-based, human; conditions: 10^Δ2-x, relative to compound 2
UO-31 = type: cell-based, human; conditions: 10^Δ2-x, relative to compound 2
PC-3 = type: cell-based, human; conditions: 10^Δ2-x, relative to compound 2
DU-145 = type: cell-based, human; conditions: 10^Δ2-x, relative to compound 2
MCF7 = type: cell-based, human; conditions: 10^Δ2-x, relative to compound 2
MDA-MB-231/ATCC [8] = type: cell-based, human; conditions: 10^Δ2-x, relative to compound 2
HS578T = type: cell-based, human; conditions: 10^Δ2-x, relative to compound 2
BT-549 = type: cell-based, human; conditions: 10^Δ2-x, relative to compound 2
T-47D = type: cell-based, human; conditions: 10^Δ2-x, relative to compound 2
MDA-MB-468 = type: cell-based, human; conditions: 10^Δ2-x, relative to compound 2
[9] = tested on: COLO-205 (colon), A549 (non-small cell lung) and BXCP3 (pancreas); assay: cells; type: cell-based; conditions: 72 h, read-out: average GI50 (50% of growth inhibition)
[10] = tested on: panel of 12 tumor cell lines implanted in mice; assay: NCI hollow fiber assay; type: in vivo; conditions: for hollow fiber assay total score: 12 tumor cell lines, daily ip for four days
SK-MEL-2 melanoma cells = assay: Subcutaneous SK-MEL-2 melanoma xenograft; type: in vivo, athymic nu/nu mice; conditions: ip 8 mg/kg q4dx3, positive control
A549/ATCCC [11] = conditions: read-out: Average GI50; A549, NSCL; ref historical data at the NCI; cited from earlier work
COLO 205 [12] = conditions: read-out: Average GI50; COLO205, colon; ref historical data at the NCI; cited from earlier work
SK-MEL-5 [13] = conditions: read-out: Average GI50; SK-MEL-5, melanoma; ref historical data at the NCI; cited from earlier work
IGROV1 [14] = conditions: read-out: Average GI50; IGROV 1, ovarian; ref historical data at the NCI; cited from earlier work
OVCAR-8 [15] = conditions: read-out: Average GI50; OVCAR-8, ovarian; ref historical data at the NCI; cited from earlier work
MDA-MB-231/ATCC [16] = conditions: read-out: Average GI50; MDA-MB-231, breast; ref historical data at the NCI; cited from earlier work
SF-295 [17] = conditions: read-out: Average GI50; SF-295, CNS; ref historical data at the NCI; cited from earlier work
U251 [18] = conditions: read-out: Average GI50; U251, CNS; ref historical data at the NCI; cited from earlier work

With `CO[C@H](C(=O)[C@@H](O)[C@@H](C)O)[C@@H]1Cc2cc3cc(O[C@H]4C[C@@H](O[C@H]5C[C@@H](O)[C@H](O)[C@@H](C)O5)[C@H](O)[C@@H](C)O4)c(C)c(O)c3c(O)c2C(=O)[C@H]1O[C@H]1C[C@@H](O[C@H]2C[C@@H](O[C@H]3C[C@H](O)[C@H](O)[C@@H](C)O3)[C@H](O)[C@@H](C)O2)[C@H](O)[C@@H](C)O1` [Compound 2, demycarosyl-3D-β-D-digitoxosyl-mithramycin, reference compound] the GI50 (60 cancer cell lines; read-out: Mean GI50) was 0.051 µM.

Work on `CO[C@H](C(=O)C(C)=O)[C@@H]1Cc2cc3cc(O[C@H]4C[C@@H](O[C@H]5C[C@@H](O)[C@H](O)[C@@H](C)O5)[C@H](O)[C@@H](C)O4)c(C)c(O)c3c(O)c2C(=O)[C@H]1O[C@H]1C[C@@H](O[C@H]2C[C@@H](O[C@H]3C[C@H](O)[C@H](O)[C@@H](C)O3)[C@H](O)[C@@H](C)O2)[C@H](O)[C@@H](C)O1` [Compound 11, demycarosyl-3D-β-D-digitoxosyl-mithramycin SDK] yielded an activity improvement factor (CCRF-CEM) of 1.16, an activity improvement factor (HL-60(TB)) of 3.09 and an activity improvement factor (K-562) of 1.26. It also gave an activity improvement factor (MOLT-4) of 1.76, an activity improvement factor (RPMI-8226) of 0.75 and an activity improvement factor (SR) of 1.22. It also gave an activity improvement factor (A549/ATCCC [1]) of 1.68, an activity improvement factor (EKVX) of 1.48 and an activity improvement factor (HOP-62) of 3.39. It also gave an activity improvement factor (HOP-92) of 1.50, an activity improvement factor (NCI-H226) of 1.32 and an activity improvement factor (NCI-H23) of 2.79. It also gave an activity improvement factor (NCI-H460) of 1.19, an activity improvement factor (NCI-H522) of 0.70 and an activity improvement factor (COLO 205 [2]) of 1.60. For the same molecule, the activity improvement factor (HCC-2998) was 4.79, the activity improvement factor (HCT-116) was 1.30 and the activity improvement factor (HCT-15) was 5.82. The activity improvement factor (HT29) was 3.13, the activity improvement factor (KM12) was 2.32 and the activity improvement factor (SW-620) was 1.22. The activity improvement factor (SF-268) was 1.66, the activity improvement factor (SF-295 [3]) was 2.32 and the activity improvement factor (SF-539) was 1.58. The activity improvement factor (SNB-19) was 2.57, the activity improvement factor (SNB-75) was 2.75 and the activity improvement factor (U251 [4]) was 1.35. For the same molecule, the activity improvement factor (LOX IMVI) was 1.51, the activity improvement factor (M14) was 2.75 and the activity improvement factor (MDA-MB-435) was 1.70. For the same molecule, the activity improvement factor (SK-MEL2) was 2.24, the activity improvement factor (SK-MEL28) was 1.30 and the activity improvement factor (SK-MEL-5 [5]) was 1.24. For the same molecule, the activity improvement factor (UACC-257) was 1.17, the activity improvement factor (UACC-62) was 0.91 and the activity improvement factor (IGROV1 [6]) was 3.24. The activity improvement factor (OVCAR-3) was 3.43, the activity improvement factor (OVCAR-4) was 2.88 and the activity improvement factor (OVCAR-5) was 2.57. It also gave an activity improvement factor (OVCAR-8 [7]) of 2.11, an activity improvement factor (NCI/ADR-RES) of 4.68 and an activity improvement factor (786-0) of 2.43. For the same molecule, the activity improvement factor (A498) was 0.68, the activity improvement factor (ACHN) was 2.09 and the activity improvement factor (CAKI-1) was 1.82. For the same molecule, the activity improvement factor (RXF 393) was 1.91, the activity improvement factor (SN12C) was 1.45 and the activity improvement factor (TK-10) was 1.50. The activity improvement factor (UO-31) was 1.30, the activity improvement factor (PC-3) was 4.37 and the activity improvement factor (DU-145) was 3.63. For the same molecule, the activity improvement factor (MCF7) was 0.65, the activity improvement factor (MDA-MB-231/ATCC [8]) was 2.00 and the activity improvement factor (HS578T) was 1.76. The activity improvement factor (BT-549) was 1.26, the activity improvement factor (T-47D) was 1.32 and the activity improvement factor (MDA-MB-468) was 2.14. The GI50 (60 cancer cell lines; read-out: Mean GI50) was 0.028 µM, the GI50 (60 cancer cell lines; read-out: Mean log(GI50) (converted)) was 0.0282 µM and the GI50 [9] was 0.3 to 1.3 µM. The “hollow fiber assay total score” value [10] was 48/96.

With `COc1cccc2c1C(=O)c1c(O)c3c(c(O)c1C2=O)C[C@@](O)(C(=O)CO)C[C@@H]3O[C@H]1C[C@H](N)[C@H](O)[C@H](C)O1` [doxorubicin, reference compound] the “growth of SK-MEL-2 human melanoma xenografts” value (SK-MEL-2 melanoma cells) was “markedly delayed”.

In the case of mithramycin [Compound 1], the “hollow fiber assay total score” value [10] is reported as 58/96, the “hollow fiber assay intraperitoneal score” value ([10]; intraperitoneal implants) is reported as 34/48 and the “hollow fiber assay subcutaneous score” value ([10]; subcutaneous implants) is reported as 24/48. The GI50 (A549/ATCCC [11]) was 0.079 µM, the GI50 (COLO 205 [12]) was 0.063 µM and the GI50 (SK-MEL-5 [13]) was 0.063 µM. For the same molecule, the GI50 (IGROV1 [14]) was 0.158 µM, the GI50 (OVCAR-8 [15]) was 0.079 µM and the GI50 (MDA-MB-231/ATCC [16]) was 0.166 µM. The GI50 (SF-295 [17]) was 0.079 µM and the GI50 (U251 [18]) was 0.063 µM.
